Results: article PMC4106346, “The Oligomeric States of the Purified Sigma-1 Receptor Are Stabilized by Ligands” (The Journal of Biological Chemistry, 2014)
Structures can show the parent of a compound that is named as a salt.

Experiments:
sigma-1 receptor (S1R) [1] = molecular target: T1, sigma-1 receptor (S1R) (Cavia porcellus, UniProt Q60492); assay: ligand stabilization of the purified oligomer at […] °C, analytical SEC; assay type: binding; parameters: gene SIGMAR1; MBP-4A-S1R, purified oligomer (peak 1)
T1 sequence (Q60492 whole entry): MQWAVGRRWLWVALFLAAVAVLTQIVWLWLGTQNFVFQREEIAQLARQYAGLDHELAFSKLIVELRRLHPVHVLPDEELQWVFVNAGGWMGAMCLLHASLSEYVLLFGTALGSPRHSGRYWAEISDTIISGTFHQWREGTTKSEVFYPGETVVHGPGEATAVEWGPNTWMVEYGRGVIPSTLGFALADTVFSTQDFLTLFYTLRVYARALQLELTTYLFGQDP

sigma-1 receptor (S1R) [2] = molecular target: T2, sigma-1 receptor (S1R) (Cavia porcellus, UniProt Q60492, H97A); assay: radioligand filtration binding, […] (+)-[3H]pentazocine
T2 construct: gene SIGMAR1; MBP-4A-S1R
T2 sequence (Q60492 whole entry H97A): as the sequence (Q60492 whole entry) above, with H97A counted along it

sigma-1 receptor (S1R) [3] = molecular target: T1, sigma-1 receptor (S1R); assay: titration by ligand stabilization of the oligomer, analytical SEC with tryptophan fluorescence; assay type: binding; parameters: gene SIGMAR1
sigma-1 receptor (S1R) [4] = molecular target: T1, sigma-1 receptor (S1R); assay: ligand stabilization of the purified oligomer, analytical SEC; assay type: binding; parameters: gene SIGMAR1; MBP-4A-S1R, purified oligomer (peak 1)

c1ccc(CCCCN2CCC(c3ccccc3)CC2)cc1 [4-PPBP, 4-phenyl-1-(4-phenylbutyl)piperidine maleate]
ligand stabilization of the purified oligomer at 37 °C, analytical SEC (sigma-1 receptor (S1R) [1]): Tight-binding ligands 4-PPBP, BD-1047 and others stabilized the oligomeric states

CC(C)=CCN1CC[C@]2(C)c3cc(O)ccc3C[C@H]1[C@H]2C [(+)-pentazocine]
% of nonmutated binding (sigma-1 receptor (S1R) [2]): ~ 50 % of nonmutated binding

CN(C)CCN(C)CCc1ccc(Cl)c(Cl)c1 [BD-1047, N-[2-(3,4-dichlorophenyl)ethyl]-N-methyl-2-(dimethylamino)ethylamine dihydrobromide]
Kd (sigma-1 receptor (S1R) [3]): ~7 nM

CCCCCCCCCCCCC/C=C/[C@@H](O)[C@@H](N)CO [sphingosine]
ligand stabilization of the purified oligomer, analytical SEC (sigma-1 receptor (S1R) [4]): the natural membrane lipid sphingosine gave a stabilizing interaction that was close to that of many of the synthetic ligands
